Measurements published in ChEMBL document CHEMBL1137392, “Conformational analysis of an alpha3beta1 integrin-binding peptide from thrombospondin-1: implications for antiangiogenic drug design” (J Med Chem, 2006).
Where a SMILES comes first, the peptide text is derived from it. Bridges are numbered along the chain shown (N, C = ends).

Tested on: MDA-MB-435
Assay: Inhibition of alpha3beta1 integrin-dependent adhesion of MDA-MB-435 cells
Type: functional, cell-based
Conditions: Homo sapiens

IC50	Compound
16 µM	CC(=O)N[C@H](Cc1ccccc1)C(=O)N[C@@H](C(=O)N[C@H](Cc1ccccc1)C(=O)N[C@H](CCCN=C(N)N)C(=O)N[C@@H](C(=O)N[C@H](CC(N)=O)C(=O)N[C@H](CCC(N)=O)C(=O)N[C@H](CC(C)C)C(=O)N[C@@H](C(=O)NCC(=O)N[C@H](CCC(N)=O)C(=O)N[C@H](Cc1ccccc1)C(N)=O)C(C)C)C(C)C)C(C)C
> 300 µM	NC(=O)C[C@@H]1NC(=O)[C@@H](N)CSSC[C@@H](C(=O)O)NC(=O)[C@H](CCCN=C(N)N)NC(=O)CNC1=O (H-CNGRC-OH; disulfide 1-5)
> 300 µM	CC(C)[C@@H]1NC(=O)[C@H](CC(N)=O)NC(=O)[C@@H](N)CSSC[C@@H](C(=O)O)NC(=O)[C@H](CCCN=C(N)N)NC1=O (H-CNVRC-OH; disulfide 1-5)
300 µM	H-FQGVLQAVRFVF-OH
13 µM	H-FQGVLQDVRFVF-OH
> 300 µM	H-FQGVLQNARFVF-OH
17 µM	H-FQGVLQNLRFVF-OH
> 300 µM	H-FQGVLQNVAFVF-OH
27 µM	H-FQGVLQQVRFVF-OH
